Data from US10526295B2, “Nuclear transport modulators and uses thereof” (Karyopharm Therapeutics Inc., priority 2015, dated 2020).

Assays:
Format in all cases: cell-based
3T3 cells = test: MTT cell proliferation assay (3T3); settings: Mus musculus, NIH3T3; 3T3 fibroblast cells; approximately 64-72 hours incubation; 1 nM to 30 μM
Method: (§1) The MTT cell proliferation assay was used to study the cytotoxic properties of the compounds. The assay was performed according to the method described by Roche Molecular Biochemicals, with minor modifications. The assay is based on the cleavage of the tetrazolium salt, MTT, in the presence of an electron-coupling reagent. The water-insoluble formazan salt produced must be solubilized in an additional step. Cells grown in a 96-well tissue culture plate were incubated with the MTT solution for approximately 4 hours. After this incubation period, a water-insoluble formazan dye formed. After solubilization, the formazan dye was quantitated using a scanning multi-well spectrophotometer (ELISA reader). […] The cells were seeded at 5,000-10,000 cells in each well of 96-well plate in 100 μL of fresh culture medium and were allowed to attach overnight. The stock solutions of the compounds were diluted in 100 μL cell culture medium to obtain eight concentrations of each test compound, ranging from 1 nM to 30 μM. […] All optical densities were measured at 490 nm using a Vmax Kinetic Microplate Reader (Molecular Devices). In most cases, the assay was performed in duplicate and the results were presented as a mean percent inhibition to the negative control±SE. The following formula was used to calculate the percent of inhibition: Inhibition (%)=(1−(ODo/OD))×100.
(§2) The compounds were tested against Z138, MM1S and 3T3 cells. The Z138 cell line is a mature B-cell acute lymphoblastic leukemia cell line derived from a patient with chronic lumphocytic leukemia. The MM1S cell line was established from the peripheral blood of a human multiple myeloma patient. 3T3 cells are standard fibroblast cells; they were originally isolated from Swiss mouse embryo tissue.

Z138 cells = test: MTT cell proliferation assay (Z138); settings: Homo sapiens, Z-138, approximately 64-72 hours incubation, 1 nM to 30 μM
Method: as §1, §2

MM1S cells = test: MTT cell proliferation assay (MM1S); settings: Homo sapiens, MM1.S; MM1S multiple myeloma cells; approximately 64-72 hours incubation; 1 nM to 30 μM
Method: as §1, §2

SMILES | IC50 (MM1S cells) | IC50 (3T3 cells) | IC50 (Z138 cells)
NC(=O)/C(=C/n1cnc(-c2cc(C(F)(F)F)cc(C(F)(F)F)c2)n1)c1ccc(S(=O)(=O)NC2CC2)cc1 [Compound 100, (E)-3-(3-(3,5-bis(trifluoromethyl)phenyl)-1H-1,2,4-triazol-1-yl)-2-(4-(N-cyclopropylsulfamoyl)phenyl)acrylamide] | < 100 nM | > 30000 nM | < 100 nM
NC(=O)/C(=C/n1cnc(-c2cc(C(F)(F)F)cc(C(F)(F)F)c2)n1)c1ccc(S(=O)(=O)C2CC2)cc1 [Compound 101, (E)-3-(3-(3,5-bis(trifluoromethyl)phenyl)-1H-1,2,4-triazol-1-yl)-2-(4-(cyclopropylsulfonyl)phenyl)acrylamide] | < 100 nM | < 100 nM | < 100 nM
CS(=O)(=O)Nc1cccc(/C(=C\n2cnc(-c3cc(C(F)(F)F)cc(C(F)(F)F)c3)n2)C(N)=O)c1 [Compound 102, (E)-3-(3-(3,5-bis(trifluoromethyl)phenyl)-1H-1,2,4-triazol-1-yl)-2-(3-(methylsulfonamido)phenyl)acrylamide] | 100 to 5000 nM | > 30000 nM | 100 to 5000 nM
CS(=O)(=O)c1ccc(/C(=C\n2cnc(-c3cc(C(F)(F)F)cc(C(F)(F)F)c3)n2)C(N)=O)cc1 [Compound 103, (E)-3-(3-(3,5-bis(trifluoromethyl)phenyl)-1H-1,2,4-triazol-1-yl)-2-(4-(methylsulfonyl)phenyl)acrylamide] | < 100 nM | > 30000 nM | 100 to 5000 nM
CN(C)S(=O)(=O)c1ccc(/C(=C\n2cnc(-c3cc(C(F)(F)F)cc(C(F)(F)F)c3)n2)C(N)=O)cc1 [Compound 104, (E)-3-(3-(3,5-bis(trifluoromethyl)phenyl)-1H-1,2,4-triazol-1-yl)-2-(4-(N,N-dimethylsulfamoyl)phenyl)acrylamide] | 100 to 5000 nM | > 30000 nM | 100 to 5000 nM
NC(=O)/C(=C/n1cnc(-c2cc(C(F)(F)F)cc(C(F)(F)F)c2)n1)c1ccc(S(=O)(=O)N2CCC(C(F)(F)F)CC2)cc1 [Compound 106, (E)-3-(3-(3,5-bis(trifluoromethyl)phenyl)-1H-1,2,4-triazol-1-yl)-2-(4-(4-(trifluoromethyl)piperidin-1-ylsulfonyl)phenyl)acrylamide] | 100 to 5000 nM | > 30000 nM | 100 to 5000 nM
NC(=O)/C(=C/n1cnc(-c2cc(C(F)(F)F)cc(C(F)(F)F)c2)n1)c1ccc(S(=O)(=O)N2CCOCC2)cc1 [Compound 108, (E)-3-(3-(3,5-bis(trifluoromethyl)phenyl)-1H-1,2,4-triazol-1-yl)-2-(4-(morpholinosulfonyl)phenyl)acrylamide] | < 100 nM | 100 to 5000 nM | 100 to 5000 nM
NC(=O)/C(=C/n1cnc(-c2cc(C(F)(F)F)cc(C(F)(F)F)c2)n1)c1ccc(S(=O)(=O)N2CCCCC2)cc1 [Compound 109, (E)-3-(3-(3,5-bis(trifluoromethyl)phenyl)-1H-1,2,4-triazol-1-yl)-2-(4-(piperidin-1-ylsulfonyl)phenyl)acrylamide] | 100 to 5000 nM | 100 to 5000 nM | 100 to 5000 nM
NC(=O)/C(=C/n1cnc(-c2cc(C(F)(F)F)cc(C(F)(F)F)c2)n1)c1ccc(S(=O)(=O)N2CCCC2)cc1 [Compound 112, (E)-3-(3-(3,5-bis(trifluoromethyl)phenyl)-1H-1,2,4-triazol-1-yl)-2-(4-(pyrrolidin-1-ylsulfonyl)phenyl)acrylamide] | < 100 nM | 100 to 5000 nM | < 100 nM
NC(=O)/C(=C/n1cnc(-c2cc(C(F)(F)F)cc(C(F)(F)F)c2)n1)c1ccc(S(=O)(=O)N2CCC(F)CC2)cc1 [Compound 114, (E)-3-(3-(3,5-bis(trifluoromethyl)phenyl)-1H-1,2,4-triazol-1-yl)-2-(4-(4-fluoropiperidin-1-ylsulfonyl)phenyl)acrylamide] | < 100 nM | < 100 nM | < 100 nM
CN1CCN(S(=O)(=O)c2ccc(/C(=C\n3cnc(-c4cc(C(F)(F)F)cc(C(F)(F)F)c4)n3)C(N)=O)cc2)CC1 [Compound 115, (E)-3-(3-(3,5-bis(trifluoromethyl)phenyl)-1H-1,2,4-triazol-1-yl)-2-(4-(4-methylpiperazin-1-ylsulfonyl)phenyl)acrylamide] | 100 to 5000 nM | 100 to 5000 nM | 100 to 5000 nM
CC1(C)CN(S(=O)(=O)c2ccc(/C(=C\n3cnc(-c4cc(C(F)(F)F)cc(C(F)(F)F)c4)n3)C(N)=O)cc2)CCO1 [Compound 116, (E)-3-(3-(3,5-bis(trifluoromethyl)phenyl)-1H-1,2,4-triazol-1-yl)-2-(4-(2,2-dimethylmorpholinosulfonyl)phenyl)acrylamide] | 100 to 5000 nM | 100 to 5000 nM | 100 to 5000 nM
NC(=O)/C(=C/n1cnc(-c2cc(C(F)(F)F)cc(C(F)(F)F)c2)n1)c1ccc(S(=O)(=O)N2CCCOCC2)cc1 [Compound 118, (E)-2-(4-(1,4-oxazepan-4-ylsulfonyl)phenyl)-3-(3-(3,5-bis(trifluoromethyl)phenyl)-1H-1,2,4-triazol-1-yl)acrylamide] | < 100 nM | 100 to 5000 nM | < 100 nM
NC(=O)/C(=C/n1cnc(-c2cc(C(F)(F)F)cc(C(F)(F)F)c2)n1)c1cccc(S(=O)(=O)N2CCOCC2)c1 [Compound 119, (E)-3-(3-(3,5-bis(trifluoromethyl)phenyl)-1H-1,2,4-triazol-1-yl)-2-(3-(morpholinosulfonyl)phenyl)acrylamide] | 100 to 5000 nM | > 30000 nM | 100 to 5000 nM
NC(=O)/C(=C/n1cnc(-c2cc(C(F)(F)F)cc(C(F)(F)F)c2)n1)c1cccc(S(=O)(=O)N2CCC(F)CC2)c1 [Compound 120, (E)-3-(3-(3,5-bis(trifluoromethyl)phenyl)-1H-1,2,4-triazol-1-yl)-2-(3-(4-fluoropiperidin-1-ylsulfonyl)phenyl)acrylamide] | 100 to 5000 nM | > 30000 nM | 100 to 5000 nM

Further lines, with some results ahead:

IC50 (MM1S cells) | SMILES | IC50 (3T3 cells) | IC50 (Z138 cells)
< 100 nM | NC(=O)/C(=C/n1cnc(-c2cc(C(F)(F)F)cc(C(F)(F)F)c2)n1)c1ccc(S(=O)(=O)N2CCC(F)(F)CC2)cc1 [Compound 105, (E)-3-(3-(3,5-bis(trifluoromethyl)phenyl)-1H-1,2,4-triazol-1-yl)-2-(4-(4,4-difluoropiperidin-1-ylsulfonyl)phenyl)acrylamide] | 100 to 5000 nM | < 100 nM
< 100 nM | NC(=O)/C(=C/n1cnc(-c2cc(C(F)(F)F)cc(C(F)(F)F)c2)n1)c1ccc(S(=O)(=O)N2CCC2)cc1 [Compound 107, (E)-2-(4-(azetidin-1-ylsulfonyl)phenyl)-3-(3-(3,5-bis(trifluoromethyl)phenyl)-1H-1,2,4-triazol-1-yl)acrylamide] | 100 to 5000 nM | < 100 nM
< 100 nM | NC(=O)/C(=C/n1cnc(-c2cc(C(F)(F)F)cc(C(F)(F)F)c2)n1)c1ccc(S(=O)(=O)N2CC(F)C2)cc1 [Compound 110, (E)-3-(3-(3,5-bis(trifluoromethyl)phenyl)-1H-1,2,4-triazol-1-yl)-2-(4-(3-fluoroazetidin-1-ylsulfonyl)phenyl)acrylamide] | 100 to 5000 nM | < 100 nM
< 100 nM | NC(=O)/C(=C/n1cnc(-c2cc(C(F)(F)F)cc(C(F)(F)F)c2)n1)c1ccc(S(=O)(=O)N2CC(F)(F)C2)cc1 [Compound 111, (E)-3-(3-(3,5-bis(trifluoromethyl)phenyl)-1H-1,2,4-triazol-1-yl)-2-(4-(3,3-difluoroazetidin-1-ylsulfonyl)phenyl)acrylamide] | 100 to 5000 nM | < 100 nM
< 100 nM | NC(=O)/C(=C/n1cnc(-c2cc(C(F)(F)F)cc(C(F)(F)F)c2)n1)c1ccc(S(=O)(=O)N2CCC(F)(F)C2)cc1 [Compound 113, (E)-3-(3-(3,5-bis(trifluoromethyl)phenyl)-1H-1,2,4-triazol-1-yl)-2-(4-(3,3-difluoropyrrolidin-1-ylsulfonyl)phenyl)acrylamide] | < 100 nM | < 100 nM
< 100 nM | NC(=O)/C(=C/n1cnc(-c2cc(C(F)(F)F)cc(C(F)(F)F)c2)n1)c1ccc(S(=O)(=O)N2CC[C@@H](F)C2)cc1 [Compound 117, (R,E)-3-(3-(3,5-bis(trifluoromethyl)phenyl)-1H-1,2,4-triazol-1-yl)-2-(4-(3-fluoropyrrolidin-1-ylsulfonyl)phenyl)acrylamide] | 100 to 5000 nM | < 100 nM
100 to 5000 nM | NC(=O)/C(=C/n1cnc(-c2cc(C(F)(F)F)cc(C(F)(F)F)c2)n1)c1cccc(S(=O)(=O)N2CC(F)(F)C2)c1 [Compound 121, (E)-3-(3-(3,5-bis(trifluoromethyl)phenyl)-1H-1,2,4-triazol-1-yl)-2-(3-(3,3-difluoroazetidin-1-ylsulfonyl)phenyl)acrylamide] | > 30000 nM | 100 to 5000 nM
